A short description of the data set: solvent given as SMILES.

The molecule `CCCCOC(=O)/C(C#N)=C1\C(=O)C([O-])=C1C=C1N(C)c2ccccc2C1(C)C` gave an absorption maximum (in CCO) of 462 nm.
On to `c1ccc2c(c1)ccc1ncc3ccc4cnccc4c3c12`, for which the absorption maximum (in CC#N) is on record as 403 nm.
In turn, `CCC1=C(C)C2=C(C)c3cc(I)c(I)n3[B-](F)(F)[N+]2=C1C` showed an absorption maximum (in C1CCCCC1) of 532 nm; an absorption maximum (in CC(C)=O) of 515.5 nm; an absorption maximum (in CCO) of 520 nm; an absorption maximum (in CCOC(C)=O) of 518.5 nm; an absorption maximum (in CO) of 518 nm; an absorption maximum (in OCC(F)(F)F) of 511.5 nm.
Molecule `Cc1c(C)c(-c2ccc(-c3cccnc3)cc2)c(C)c(C)c1B(c1c(C)c(C)c(-c2ccc(-c3cccnc3)cc2)c(C)c1C)c1c(C)c(C)c(-c2ccc(-c3cccnc3)cc2)c(C)c1C` yielded an absorption maximum (in ClCCl) of 331 nm.
As for `CCCCCCOc1cc(C=O)c(OCCCCCC)cc1C=O`, the absorption maximum (in ClCCl) is reported as 403 nm.
Same read-out and setting: then `C1=C(c2ccccn2)[Si](c2ccccc2)(c2ccccc2)c2ccccc21`, with 339 nm.
As to `c1ccc(Nc2nc(Nc3ccccc3)nc(Nc3ccc4cc5ccccc5cc4c3)n2)cc1`, the absorption maximum is, setting by setting: (in C1COCCO1) 402 nm; (in CC#N) 401 nm; (in CCCCOCCCC) 402 nm; (in CCOC(C)=O) 402 nm.
Molecule `Cc1ccc(C2=C3C=CC(=[N+](C)C)C=C3[Si](C)(C)c3cc(N(C)C)ccc32)c(C)c1` had an absorption maximum (in O) of 646 nm.
Where the note is “in C1CCOC1”, `CCCCC1(CCCC)c2cc(C#Cc3ccc(C=C(c4ccccc4)c4ccccc4)cc3)ccc2-c2ccc(C#Cc3ccc(C=C(c4ccccc4)c4ccccc4)cc3)cc21` displayed an absorption maximum of 376 nm.
Consider `CC(C)(C)c1ccc2c(c1)c1cc(C(C)(C)C)ccc1n2-c1ccc(C(=C(C#N)C#N)c2ccc(-n3c4ccc(C(C)(C)C)cc4c4cc(C(C)(C)C)ccc43)cc2)cc1`, for which the absorption maximum (in Cc1ccccc1) came out at 438 nm.
For `Cc1ccc(C2=C3C=CC4=[N+]3[B-](F)(F)n3c2ccc3-c2ccc([nH]2)/C(c2ccc(C)cc2)=c2/cc/c(o2)=C(\c2ccc(C)cc2)c2ccc4[nH]2)cc1`, the absorption maximum (in ClC(Cl)Cl) is reported as 703 nm.
Molecule `COC(=O)c1ccc(/C=C2\C=C(c3ccc(OC)c(OC)c3)OC2=O)cc1` had an absorption maximum (in C1COCCO1) of 423 nm.
For `N#Cc1c(-n2c3ccccc3c3cc(Br)ccc32)c(C#N)c(-n2c3ccccc3c3cc(Br)ccc32)c(-n2c3ccccc3c3cc(Br)ccc32)c1-n1c2ccccc2c2cc(Br)ccc21`, the absorption maximum (in Cc1ccccc1) came to 381 nm.
As for `CCCCC(CC)COc1ccc2nc(-c3ccc(-c4ccc(OC)cc4)s3)sc2c1` (stereo unspecified), the absorption maximum (in ClCCl) was 365 nm.
Molecule `CCOC(=O)c1c(-c2cc3cc4c(cc3oc2=O)OC(C)(C)CC4)nn(-c2ccccc2)c1C(=O)OCC` registered an absorption maximum (in ClCCl) of 348 nm.
`CCn1c2ccc(S(=O)(=O)O)cc2c(=O)c2cc3c(cc21)c(=O)c1cc(S(=O)(=O)O)ccc1n3CCCCCC(=O)O`: the absorption maximum (in O) amounted to 536 nm.
On to `Cc1cccc2[n+]1[B-](F)(F)n1c(c3cccc4cccc1c43)=N2`, for which the absorption maximum is 472 nm (in C1CCOC1); 465 nm (in CC#N); 464 nm (in CCCCCC); 475 nm (in Cc1ccccc1); 441 nm (in ClCCl).
As to `O=c1oc2ccccc2cc1-c1cc2ccccc2o1`, the absorption maximum by setting is: (in CC#N) 366 nm; (in CCOC(C)=O) 368 nm; (in CS(C)=O) 371 nm; (in Cc1ccccc1) 373 nm; (in O) 365 nm.
Regarding `C/C(=C\c1ccc(Cl)cc1)c1nc2ccccc2s1`, the absorption maximum worked out at 320 nm (in C1CCCCC1) and 320 nm (in CO).
Turning to `COc1ccc(C2=CC3=C(c4c(C)cc(C)cc4C)c4cc(-c5ccc(OC)cc5)c(-c5ccc(OC)cc5)n4[B-](F)(F)[N+]3=C2c2ccc(OC)cc2)cc1`, the absorption maximum reads like this: (in C1CCCCC1) 621 nm; (in C1CCOC1) 621 nm; (in CC#N) 608 nm; (in Cc1ccccc1) 625 nm; (in ClCCl) 616 nm.

These data come from the Deep4Chem optical property database.
